Our source for the melting point and IC50 values is patent US20030203915A1, “Nitric oxide donors, compositions and methods of use related applications” (priority 2002, published 2003).

The melting point is the temperature of the solid-liquid transition.

Series [1] concerns human coronary artery smooth muscle cells (CASMC). Put plainly: Vascular Smooth Muscle Cell (SMC) Antiproliferation Assay. It counts as cell-based. The note with it: Homo sapiens; CASMC; viable cell count (Trypan Blue) ~68 hr after compound addition; nitrosylated (nitrosothiol) compound; read-out: IC 50 μM, Nitrosylated Compound (inhibition of proliferation of vascular smooth muscle cells). As for the experimental part:
The cells used in this assay were-human coronary artery smooth-muscle cells (CASMC) supplied by Clonetics Corp. (San Diego, Calif.).
Stock solutions of the test compounds were prepared just prior to addition to the cells by dissolving in ethanol at a concentration of 1000 times the highest concentration to be assayed. This stock solution was diluted, as required, with ethanol to lower concentrations. […] Control cultures received 2 μL of ethanol per well (n=4). On the following morning, the cultures were examined microscopically and their condition recorded. On the third day after test compound addition (˜68 hr), the cultures were examined microscopically again and the viable cells counted with an hemacytometer following trypsinization with 0.25% trypsin-1 mM EDTA. Trypan Blue dye exclusion was used to discriminate between viable and dead cells.

In turn, `O=NSC1(C2OCCCO2)CCCCC1` [Example 46b, 2-(1-Nitrosomercaptocyclohex-1-yl)-1,3-dioxane] yielded a melting point of 34 to 36 °C. For the same molecule, the IC50 in series [1] turned out to be 47 µM.
As to `CC(C)(CNC(=O)CCCC(=O)O)SN=O` [Example 19b, 4-(N-(2-Methyl-2-(nitrosothio)propyl)carbamoyl)butanoic acid], the melting point lay within 104 to 107 °C. Besides, the IC50 in series [1] turned out to be 50 µM.
